According to patent publication US12077501B2, “Compounds and compositions for intracellular delivery of agents” (ModernaTX, Inc., priority 2017, dated 2024):

Legend:
[1] = Particle size and polydispersity index of nanoparticle compositions (Zetasizer Nano ZS); type: physicochemical; details: Table 1c; nanoparticle compositions
Method: A Zetasizer Nano ZS (Malvem Instruments Ltd, Malvem, Worcestershire, UK) can be used to determine the particle size, the polydispersity index (PDI) and the zeta potential of the nanoparticle compositions in 1×PBS in determining particle size and 15 mM PBS in determining zeta potential.

[2] = Encapsulation efficiency of RNA (QUANT-IT RIBOGREEN RNA assay); type: physicochemical; details: Table 1c; nanoparticle compositions
Procedure, shortened: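 RiboGreen fluorescence (ex about 480, em about 520 nm) compares nanoparticle samples left intact versus disrupted with 2% Triton X-100 (15 min, 37° C). Samples are first brought to roughly 5 μg/mL in 10 mM Tris-HCl, 1 mM EDTA, pH 7.5; percent free RNA equals the blank-corrected intact/disrupted signal ratio.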

[3] = pKa of nanoparticle compositions; type: physicochemical; details: Table 1c
[4] = Lipid purity change after storage in EtOH for 96 h at 25 or 37 °C; type: physicochemical
Procedure, shortened: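 Lipid stability was assessed as purity after storage in ethanol for 96 h at 25 °C or 37 °C.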

hEPO expression = hEPO expression in CD-1 mice compared with MC3; type: in vivo; details: intravenous, 0.5 mpk, Table 7e
Text: In contrast, hEPO expression in rats induced by administration of a nanoparticle composition including a compound according to one of formulae (I), (Ia1)-(Ia6), (Ib), (II), (IIa), (III), and (IIIa) was substantially […] than that measured for MC3. […] Tables 7c and 7d show additional protein expressions and clearance data from compositions with various compounds disclosed herein as compared to with MC3. Tables 7e, 7f and 7g show hEPO expression data in CD-1 mice at a dose of 0.5 mpk.

[5] = Lipid clearance: % dose remaining in liver of CD-1 mice; type: in vivo; details: intravenous, 0.5 mg/kg, CD-1 mouse, Table 8a
Procedure, shortened: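 CD-1 mice, 0.5 mpk dose of test-compound nanoparticle formulation; hEPO protein expression read out; clearance data also recorded.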

| SMILES | PDI [1] | Size (nm) [1] [nm] | EE (%) [2] [%] | pKa [3] | Lipid % change purity in EtOH, 25° C., 96 h [4] [%] | Lipid % change purity in EtOH, 37° C., 96 h [4] [%] | AUC (p/s*h) CD-1 mice 0.5 mpk (hEPO expression) [p/s*h] | % Dose Remaining 24 hr [5] [%] |
| --- | --- | --- | --- | --- | --- | --- | --- | --- |
| CCCCCCCCCN(CCCCCCCCC)CCN(CCCCCCCCC)CC(=O)N1CCN(C(=O)C(C)N(CCCCCCCCC)CCCC(=O)OCCCCC)CC1 (stereo not drawn) [Compound 111, Pentyl 4-((1-(4-(N-(2-(dinonylamino)ethyl)-N-nonylglycyl)piperazin-1-yl)-1-oxopropan-2-yl)(nonyl)amino)butanoate] | 0.21 | 86.8 | 96.7 | 6.82 | 6.3 | 6.5 | 1.75E+08 | 59.89 |
| CCCCCCCCCN(CCCCCCCCC)CCN(CCCCCCCCC)CC(=O)N1CCC(CCOC(=O)CN(CCCCCCCCC)CCCCCCCCC)CC1 [Compound 114, 2-(1-(N-(2-(Dinonylamino)ethyl)-N-nonylglycyl)piperidin-4-yl)ethyl dinonylglycinate] | 0.23 | 77.2 | 98.1 | 6.64 | 2.6 | 9 | 7.86E+07 | 38.43 |
| CCCCCCCCCN(CCCCCCCCC)CCN(CCCCCCCCC)CC(=O)OC1CCC(OC(=O)CN(CCCCCCCCC)CCCCCCCCC)CC1 (stereo not drawn) [Compound 115, 4-((N-(2-(Dinonylamino)ethyl)-N-nonylglycyl)oxy)cyclohexyl dinonylglycinate] | 0.16 | 66.0 | 97.0 | 5.01 | 43.1 | 59.5 | 2.31E+06 | 82.18 |
| CCCCCCCCCCCCCCN(CCCCCCCCCCCC(=O)OC)CCC1CCN(C(=O)CN(CCCCCCCCC)CCN(CCCCCCCCC)CCCCCCCCC)CC1 [Compound 116, Methyl 12-((2-(1-(N-(2-(dinonylamino)ethyl)-N-nonylglycyl)piperidin-4-yl)ethyl)(tetradecyl)amino)dodecanoate] | 0.19 | 77.1 | 98.9 | 6.55 | 2.2 | 2 | 1.01E+08 | 6.22 |
| CCCCCCCCCCCCCCN(CCCCCCCCCCCC(=O)OC)CC(=O)N1CCN(C(=O)CN(CCCCCCCCC)CCN(CCCCCCCCC)CCCCCCCCC)CC1 [Compound 117, Methyl 12-((2-(4-(N-(2-(dinonylamino)ethyl)-N-nonylglycyl)piperazin-1-yl)-2-oxoethyl)(tetradecyl)amino)dodecanoate] | 0.20 | 84.6 | 95.2 | 6.71 | 2.9 | 4.7 | 6.91E+07 | 2.03 |
| CCCCCCCCCCCCCCN(CCCCCCCC(=O)OCCCCC)CCC1CCCN(C(=O)CN(CCCCCCCCC)CCN(CCCCCCCCC)CCCCCCCCC)C1 (stereo not drawn) [Compound 120, Pentyl 8-((2-(1-(N-(2-(dinonylamino)ethyl)-N-nonylglycyl)piperidin-3-yl)ethyl)(tetradecyl)amino)octanoate] | 0.21 | 78.7 | 99.0 | 6.49 | 0.8 | 2.9 | 4.17E+07 | 9.32 |
| CCCCCCCCCCCCCCN(CCCCCC(=O)OCCCCCCC)CCC1CCCN(C(=O)CN(CCCCCCCCC)CCN(CCCCCCCCC)CCCCCCCCC)C1 (stereo not drawn) [Compound 121, Heptyl 6-((2-(1-(N-(2-(dinonylamino)ethyl)-N-nonylglycyl)piperidin-3-yl)ethyl)(tetradecyl)amino)hexanoate] | 0.22 | 75.7 | 98.6 | 6.50 | 0.3 | 1.5 | 2.84E+07 | 13.97 |
| CCCCCCCCCCCCCCN(CCCOC(=O)CCCCCCCCC)CCC1CCCN(C(=O)CN(CCCCCCCCC)CCN(CCCCCCCCC)CCCCCCCCC)C1 (stereo not drawn) [Compound 122, 3-((2-(1-(N-(2-(Dinonylamino)ethyl)-N-nonylglycyl)piperidin-3-yl)ethyl)(tetradecyl)amino)propyl decanoate] | 0.23 | 77.1 | 99.1 | 6.44 | 1 | 4.1 | 5.71E+07 | 0.05 |
| CCCCCCCCCCCCCCN(CCCCCCCC(=O)OCCCCC)CCC1CCN(C(=O)CN(CCCCCCCCC)CCN(CCCCCCCCC)CCCCCCCCC)C1 (stereo not drawn) [Compound 124, Pentyl 8-((2-(1-(N-(2-(dinonylamino)ethyl)-N-nonylglycyl)pyrrolidin-3-yl)ethyl)(tetradecyl)amino)octanoate] | 0.21 | 92.7 | 99.2 | 6.94 | −4.6 | −3.5 | 3.88E+07 | 5.60 |
| CCCCCCCCCCCCCCN(CCCOC(=O)CCCCCCCCC)CCC1CCN(C(=O)CN(CCCCCCCCC)CCN(CCCCCCCCC)CCCCCCCCC)C1 (stereo not drawn) [Compound 126, 3-((2-(1-(N-(2-(Dinonylamino)ethyl)-N-nonylglycyl)pyrrolidin-3-yl)ethyl)(tetradecyl)amino)propyl decanoate] | 0.24 | 87.0 | 98.7 | 6.76 | 0.6 | 2.2 | 6.24E+07 | 0.09 |
| CCCCCCCCCCCCCCN(CCCCCCCCCCCC(=O)OC)CCC1CCN(C(=O)CN(CCCCCCCCC)CCN(CCCCCCCCC)CCCCCCCCC)C1 (stereo not drawn) [Compound 127, Methyl 12-((2-(1-(N-(2-(dinonylamino)ethyl)-N-nonylglycyl)pyrrolidin-3-yl)ethyl)(tetradecyl)amino)dodecanoate] | 0.20 | 79.8 | 99.5 | 6.81 | 2.7 | 2.9 | 3.45E+07 | 0.86 |
| CCCCCCCCCN(CCCCCCCCC)CCOC(=O)C1CCC(C(=O)OCCN(CCCCCCCCC)CCN(CCCCCCCCC)CCCCCCCCC)CC1 (stereo not drawn) [Compound 128, 1-(2-(Dinonylamino)ethyl) 4-(2-((2-(dinonylamino)ethyl)(nonyl)amino)ethyl) cyclohexane-1,4-dicarboxylate] | 0.20 | 68.0 | 97.1 | 4.93 | 6.9 | 12.2 | 3.04E+05 | 52.19 |
